According to US12338256B2, “Aza-tetracyclic oxazepine compounds and uses thereof” (Genentech, Inc., priority 2022, dated 2025):

Key:
Assay type in all cases: cell-based
[1] = test system: PC-9 (KRAS wild type human lung adenocarcinoma cell line); experiment: KRAS 3D-Cell Proliferation Assay, PC-9 (Example 503); conditions: 168 h, PC-9 3D culture, 7 days, CellTiter-Glo 3D, read-out: Prolif PC9 3D ATP IC50
Experimental: Example 503: KRAS 3D-Cell Proliferation Assays. Cellular potencies of compounds are assessed by evaluating inhibition of proliferation in 3D cultures of homozygous mutant KRAS G12D human pancreatic cell lines (AsPC-1 and HPAC) as compared to a KRAS wild type human lung adenocarcinoma cell line (PC-9 and/or H1975). Cells are seeded into 384-well black round-bottom, ultra-low attachment assay plates in 50 uL cell growth medium (RPMI-1640 with 10% fetal bovine serum and 2 mM L-glutamine). After overnight incubation at 37° C. and 5% CO2, compounds solubilized in DMSO are added as dilution series to the wells in a total volume of 150 nL (0.3% DMSO final). The cells are incubated for 7 days at 37° C. and 5% CO2. Cell proliferation is quantitated by addition of 40 uL/well of CellTiter-GloÒ 3D (Promega), and the well contents are mixed 20× at high speed using liquid handling automation workstation (Bravo with 384-well head) and centrifuged at 1500 rpm for 2 minutes to eliminate bubbles. This reagent in combination with mechanical disruption releases the cellular ATP to promote activity in a luciferase-based enzyme/substrate chemiluminescent detection system. After a 30-minute incubation under ambient conditions with shaking and an additional 10 minutes without shaking, the luminescence is read on a plate reader (e.g., EnVision [PerkinElmer]). The results are normalized to percent inhibition based on the following control samples: DMSO (0% inhibition) and 1 μM staurosporine (100% inhibition). The normalized luminescence results are plotted against compound concentration, and the data are fit to a 4-parameter Hill equation to determine the IC50 values.

[2] = test system: AsPC-1 (homozygous mutant KRAS G12D human pancreatic cell line); experiment: KRAS 3D-Cell Proliferation Assay, AsPC-1 (Example 503); conditions: Homo sapiens, ASPC1, 168 h, AsPC-1 3D culture, 7 days, CellTiter-Glo 3D; read-out: Prolif AsPC-1 3D ATP IC50
Procedure, shortened: (§1)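 IC50 values derive from 4-parameter Hill fits of normalized luminescence, where DMSO sets 0% and 1 μM staurosporine 100% inhibition. 3D cultures in RPMI-1640 with 10% fetal bovine serum were exposed to compound for 7 days before CellTiter-Glo 3D lysis.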

[3] = test system: H1975 (KRAS wild type human lung adenocarcinoma cell line); experiment: KRAS 3D-Cell Proliferation Assay, H1975 (Example 503); conditions: Homo sapiens, NCI-H1975, 168 h, H1975 3D culture, 7 days, CellTiter-Glo 3D; read-out: Prolif H1975 3D ATP IC50
Procedure, shortened: as §1

[4] = test system: HPAC (homozygous mutant KRAS G12D human pancreatic cell line); experiment: KRAS 3D-Cell Proliferation Assay, HPAC (Example 503); conditions: Homo sapiens, HPAC, 168 h, HPAC 3D culture, 7 days, CellTiter-Glo 3D; read-out: Prolif HPAC 3D ATP IC50
Procedure, shortened: as §1

SMILES | IC50 [1] [µM] | IC50 [2] [µM] | IC50 [3] [µM] | IC50 [4] [µM]
C[C@@H]1Oc2nc(-c3cc(N)c(F)c(F)c3C(F)(F)F)c(F)c3nc(OC[C@@]45CCCN4C[C@H](F)C5)nc(c23)N2C[C@H]3CC[C@H](N3)[C@@H]12 [Compound 15, 2,3-difluoro-5-((5S,5aS,6S,9R)-1-fluoro-12-(((2R,7aS)-2-fluorotetrahydro-1H-pyrrolizin-7a(5H)-yl)methoxy)-5-methyl-5a,6,7,8,9,10-hexahydro-5H-4-oxa-3,10a,11,13,14-pentaaza-6,9-methanonaphtho[1,8-ab]heptalen-2-yl)-4-(trifluoromethyl)aniline] | 2.9 | 0.00157 | – | –
C[C@@H]1Oc2nc(-c3nc(N)cc4ccccc34)c(F)c3nc(OC[C@@]45CCCN4C[C@H](F)C5)nc(c23)N2C[C@H]3CC[C@H](N3)[C@@H]12 [Compound 41, 1-((5S,5aS,6S,9R)-1-fluoro-12-(((2R,7aS)-2-fluorotetrahydro-1H-pyrrolizin-7a(5H)-yl)methoxy)-5-methyl-5a,6,7,8,9,10-hexahydro-5H-4-oxa-3,10a,11,13,14-pentaaza-6,9-methanonaphtho[1,8-ab]heptalen-2-yl)isoquinolin-3-amine] | ≥ 20 | 0.98 | – | –
Cc1cc(N)nc(-c2nc3c4c(nc(OC[C@]56CCN5CC(F)(F)C6)nc4c2F)N2C[C@H]4CC[C@H](N4)[C@H]2[C@H](C)O3)c1C(F)(F)F (single isomer, unassigned) [Compound 45] | ≥ 20 | – | – | –
C[C@@H]1Oc2nc(-c3nc(N)c(F)cc3C(F)(F)F)c(F)c3nc(OC[C@@]45CCCN4C[C@H](F)C5)nc(c23)N2C[C@H]3CC[C@H](N3)[C@@H]12 [Compound 84, 3-Fluoro-6-((5S,5aS,6S,9R)-1-fluoro-12-(((2R,7aS)-2-fluorotetrahydro-1H-pyrrolizin-7a(5H)-yl)methoxy)-5-methyl-5a,6,7,8,9,10-hexahydro-5H-4-oxa-3,10a,11,13,14-pentaaza-6,9-methanonaphtho[1,8-ab]heptalen-2-yl)-5-(trifluoromethyl)pyridin-2-amine] | ≥ 20 | 1.16 | – | –
Fc1c(-c2cccc3cccc(Cl)c23)nc2c3c(nc(OC[C@@]45CCCN4C[C@H](F)C5)nc13)N1C[C@H]3CC[C@H](N3)[C@H]1CO2 [Compound 2, (5aS,6S,9R)-2-(8-chloronaphthalen-1-yl)-1-fluoro-12-(((2R,7aS)-2-fluorotetrahydro-1H-pyrrolizin-7a(5H)-yl)methoxy)-5a,6,7,9,10-hexahydro-5H-4-oxa-3,10a,11,13,14-pentaaza-6,9-methanonaphtho[1,8-ab]heptalene] | 4.68 | 0.565 | – | –
C#Cc1c(F)ccc2cccc(-c3nc4c5c(ncnc5c3F)N3C[C@H]5CC[C@H](N5)[C@H]3[C@H](C)O4)c12 [Compound 56, (5S,5aS,6S,9R)-2-(8-ethynyl-7-fluoronaphthalen-1-yl)-1-fluoro-5-methyl-5a,6,7,8,9,10-hexahydro-5H-4-oxa-3,10a,11,13,14-pentaaza-6,9-methanonaphtho[1,8-ab]heptalene] | ≥ 20 | 5.74 | – | –
CN1CCC2COc3nc(-c4cc(O)cc5cccc(F)c45)c(F)c4nc(OC[C@@]56CCCN5C[C@H](F)C6)nc(c34)N2CC1 (single isomer, unassigned) [Compound 49] | 2.37 | ≥ 20 | – | –
Cc1ccnc(-c2nc3c4c(nc(OC[C@]56CCN5CC(F)(F)C6)nc4c2F)N2C[C@H]4CC[C@H](N4)[C@H]2[C@H](C)O3)c1C(F)(F)F [Compound 88, (5S,5aS,6S,9R)-12-(((R)-3,3-Difluoro-1-azabicyclo[3.2.0]heptan-5-yl)methoxy)-1-fluoro-5-methyl-2-(4-methyl-3-(trifluoromethyl)pyridin-2-yl)-5a,6,7,8,9,10-hexahydro-5H-4-oxa-3,10a,11,13,14-pentaaza-6,9-methanonaphtho[1,8-ab]heptalene] | ≥ 20 | ≥ 20 | – | –
C[C@@H]1Oc2nc(-c3cccc(N)c3F)c(F)c3nc(OC[C@@]45CCCN4C[C@H](F)C5)nc(c23)N2C[C@H]3CC[C@H](N3)[C@@H]12 [Compound 12, 2-fluoro-3-((5S,5aS,6S,9R)-1-fluoro-12-(((2R,7aS)-2-fluorotetrahydro-1H-pyrrolizin-7a(5H)-yl)methoxy)-5-methyl-5a,6,7,8,9,10-hexahydro-5H-4-oxa-3,10a,11,13,14-pentaaza-6,9-methanonaphtho[1,8-ab]heptalen-2-yl)aniline] | 13.9 | 16.6 | – | –
Oc1cc(-c2nc3c4c(nc(OC[C@@]56CCCN5C[C@H](F)C6)nc4c2F)N2C[C@H]4CC[C@H](N4)[C@H]2CO3)c2c(F)cccc2c1 [Compound 1, 5-Fluoro-4-((5aS,6S,9R)-1-fluoro-12-(((2R,7aS)-2-fluorotetrahydro-1H-pyrrolizin-7a(5H)-yl)methoxy)-5a,6,7,8,9,10-hexahydro-5H-4-oxa-3,10a,11,13,14-pentaaza-6,9-methanonaphtho[1,8-ab]heptalen-2-yl)naphthalen-2-ol] | 16.9 | 0.226 | – | –
Cc1cc(-c2nc3c4c(nc(OC[C@@]56CCCN5C[C@H](F)C6)nc4c2F)N2C[C@H]4CC[C@H](N4)[C@H]2[C@H](C)O3)cc(N)c1F [Compound 13, 2-fluoro-5-((5S,5aS,6S,9R)-1-fluoro-12-(((2R,7aS)-2-fluorotetrahydro-1H-pyrrolizin-7a(5H)-yl)methoxy)-5-methyl-5a,6,7,8,9,10-hexahydro-5H-4-oxa-3,10a,11,13,14-pentaaza-6,9-methanonaphtho[1,8-ab]heptalen-2-yl)-3-methylaniline] | 3.53 | 1.87 | – | –
C[C@@H]1Oc2nc(-c3cnccc3C(F)(F)F)c(F)c3nc(OC[C@]45CCN4CC(F)(F)C5)nc(c23)N2C[C@H]3CC[C@H](N3)[C@@H]12 [Compound 78, (5S,5aS,6S,9R)-12-(((R)-3,3-Difluoro-1-azabicyclo[3.2.0]heptan-5-yl)methoxy)-1-fluoro-5-methyl-2-(4-(trifluoromethyl)pyridin-3-yl)-5a,6,7,8,9,10-hexahydro-5H-4-oxa-3,10a,11,13,14-pentaaza-6,9-methanonaphtho[1,8-ab]heptalene] | ≥ 20 | 15.9 | – | –
Cc1c(F)c(N)cc(-c2nc3c4c(nc(OC[C@@]56CCCN5C[C@H](OCc5ccc(-c7ccccc7C#N)cc5)C6)nc4c2F)N2C[C@H]4CC[C@H](N4)[C@H]2[C@H](C)O3)c1C(F)(F)F [Compound 32, 4′-((((2R,7aS)-7a-((((5S,5aS,6S,9R)-2-(5-amino-4-fluoro-3-methyl-2-(trifluoromethyl)phenyl)-1-fluoro-5-methyl-5a,6,7,8,9,10-hexahydro-5H-4-oxa-3,10a,11,13,14-pentaaza-6,9-methanonaphtho[1,8-ab]heptalen-12-yl)oxy)methyl)hexahydro-1H-pyrrolizin-2-yl)oxy)methyl)-[1,1′-biphenyl]-2-carbonitrile] | 0.821 | 0.00338 | – | –
C[C@@H]1Oc2nc(-c3cccc4cccc(Cl)c34)c(F)c3nc(OCC45CCN4CC(F)(F)C5)nc(c23)N2C[C@H]3CC[C@H](N3)[C@@H]12 (single isomer, unassigned) [Compound 21] | 7.7 | – | 12.2 | 0.698
Cn1ncc2ccc(F)c(-c3nc4c5c(nc(OC[C@@]67CCCN6C[C@H](F)C7)nc5c3F)N3C[C@H]5CC[C@H](N5)[C@H]3CO4)c21 [Compound 4, (5aS,6S,9R)-1-fluoro-2-(6-fluoro-1-methyl-1H-indazol-7-yl)-12-(((2R,7aS)-2-fluorotetrahydro-1H-pyrrolizin-7a(5H)-yl)methoxy)-5a,6,7,8,9,10-hexahydro-5H-4-oxa-3,10a,11,13,14-pentaaza-6,9-methanonaphtho[1,8-ab]heptalene] | 13.3 | 9.75 | – | –
Cc1cc(N)c(F)c(-c2nc3c4c(nc(OC[C@@]56CCN5CC(F)(F)C6)nc4c2F)N2C[C@H]4CC[C@H](N4)[C@H]2[C@H](C)O3)c1C(F)(F)F [Compound 92, 3-((5S,5aS,6S,9R)-12-(((S)-3,3-Difluoro-1-azabicyclo[3.2.0]heptan-5-yl)methoxy)-1-fluoro-5-methyl-5a,6,7,8,9,10-hexahydro-5H-4-oxa-3,10a,11,13,14-pentaaza-6,9-methanonaphtho[1,8-ab]heptalen-2-yl)-2-fluoro-5-methyl-4-(trifluoromethyl)aniline] | 11.2 | – | – | –
